According to PubChem BioAssay AID652047 (Broad Institute, 2013):
The source made the active and inactive calls.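 How the source made its calls: active means fitted curve reaches activity change of -35% signal drop at a concentration below twice the top valid tested dose; inactive means the rest, including activity in the opposite direction.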

Assay: growth inhibition of P. falciparum 3D7, dose response, 3D7 strain, red blood cells, SYBR Green, cherry-picked (AID 652047);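 further: 0% = untreated neutral control wells and -100% = mefloquine positive control wells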
Conditions: P. falciparum 3D7 in RBCs, SYBR Green DNA fluorescence

| Structure (SMILES) | activity change, negative = inhibition (at 16 µM (top of the series)) | activity change, negative = inhibition (at 50 µM (top of the series)) |
| --- | --- | --- |
| CC1Oc2ccccc2C=C1/C=N/Nc1ccc(C(=O)O)cc1 (configuration not stated) | 17% (inactive) | – |
| O=C(O)c1c(NC(=O)N2CCCC2)sc2c1CCCC2 | – | -4.69% (inactive) |
| c1ccc(-c2ccc(OCCCn3cncn3)cc2)cc1 | – | 6.71% (inactive) |
| COC(OC)c1ccc(C#N)c(SCc2ccccc2)n1 | – | -2.94% (inactive) |
| CCC(Oc1ccc(Br)cc1Cl)C(=O)Nc1nnc(C2CC2)s1 (configuration not stated) | – | -18.5% (inactive) |
| COc1ccc(N(C(=O)c2ccncc2)S(=O)(=O)c2ccc(F)cc2)cc1 | – | 38.9% (inactive) |
| CCCC1CCC(c2ccc(/C(N)=N/O)cc2)CC1 (configuration not stated) | – | -10.1% (inactive) |
| O=C(c1ccc(Cl)cc1)N1CCN(c2ccc(F)cc2)CC1 | – | -26.4% (inactive) |
| FC(F)(F)c1cccc(N2CCc3cn[nH]c32)c1 | – | -2.82% (inactive) |
| CCCn1c2ccccc2c2cc(C(=O)O)ccc21 | – | 17.1% (inactive) |
| COc1ccc(N(C)S(=O)(=O)c2ccc(Cl)c(C(=O)NNC(=O)c3ccccc3O)c2)cc1 | – | -2.22% (inactive) |
| O=C1N(c2ccc(Cl)cc2)C(c2cccnc2)N2CCCN12 (configuration not stated) | – | -3.96% (inactive) |
| CNc1cc(CSC)nc(SCc2ccc(Cl)cc2Cl)n1 | – | 14.7% (inactive) |
| O=c1c(CO)cc(CO)cc(CO)c1O | – | -103% (inactive) |
| COc1ccccc1C1CCN(C(=O)c2ccc(Cl)cc2)CC1 | – | -15.2% (inactive) |
| COc1ccc(N(C(=O)c2ccncc2)S(=O)(=O)c2ccccc2)cc1 | – | -18.5% (inactive) |
| CCOC(=O)c1ccc(N2C(=O)CC(N3CCC(O)(c4ccc(Cl)cc4)CC3)C2=O)cc1 (configuration not stated) | – | 7.67% (inactive) |
| Cc1ccc(C(=O)C(SC(C)(C)C)n2cncn2)cc1 (configuration not stated) | – | -13% (inactive) |
| COC(=O)C1=NN(C(=O)c2cccc(Br)c2)C(O)(c2ccc(Cl)cc2)C1 (configuration not stated) | – | -78.6% (inactive) |
| COC(=O)COC(=O)c1ccccc1NC(=O)c1ccccc1 | – | -21% (inactive) |
| CC1CCN(c2ccc3c(c2)S(=O)(=O)c2ccccc2C3=O)CC1 | – | -3.18% (inactive) |

| Structure (SMILES) | activity change, negative = inhibition (at 16 µM (top of the series)) | activity change, negative = inhibition (at 50 µM (top of the series)) |
| --- | --- | --- |
| COc1cc2c(c(OC)c1OC)-c1ccc(O)c(=O)cc1[C@@H](NC(C)=O)CC2 | – | -10.9% (inactive) |
| CCCOc1ccc2ccccc2c1/C=C1\SC(=O)NC1=O | – | -22.2% (inactive) |
| CC(C)CSc1n[nH]c(=S)s1 | – | -1.47% (inactive) |
| Cc1cccc(C)c1N1C(=O)C2ON(c3ccccc3)C(c3ccncc3)C2C1=O (configuration not stated) | – | -3.22% (inactive) |
| Nc1nc(-c2ccc(Oc3ccccc3)cc2)cs1 | – | -0.359% (inactive) |
| O=C(O)CSc1nc(-c2ccc(Cl)cc2)nc2c1oc1ccccc12 | – | -31.1% (inactive) |
| COc1cccc(CC(=O)Nc2ccc3nc(C)sc3c2)c1 | – | -2.47% (inactive) |
| FC(F)(F)c1nc(SCc2ccc(Cl)cc2Cl)n[nH]1 | – | 8.98% (inactive) |
| CCCSC(=S)c1c(C)[nH]n(-c2ccccc2)c1=O | – | -28.2% (inactive) |
| CCn1c(CNc2ccc(Cl)cc2)nnc1SCc1ccc(Cl)cc1 | – | -49.2% (inactive) |
| CCCCn1c(=O)c(C(=O)NCc2ccncc2)c(O)c2ccccc21 | – | 2.98% (inactive) |
| O/N=C/c1cc(Br)ccc1OCc1ccccc1F | 13.1% (inactive) | – |
| O=C(c1ccccc1)c1ccc(Cn2cc(-c3ccccc3)nn2)cc1 | – | -9.93% (inactive) |
| Oc1c(Br)cc(-c2ccccc2)cc1Br | – | -1.67% (inactive) |
| CCCCC(CC)c1nnc(NC(=O)c2cccs2)s1 (configuration not stated) | – | -12.7% (inactive) |
| c1ccc(Cn2cc(-c3cccnc3)cn2)cc1 | – | -24.2% (inactive) |
| CCOc1ccc(N/N=C(/C#N)C(N)=O)cc1 | – | -29.8% (inactive) |
| CCn1c(CNc2ccc(Cl)cc2)nnc1SCc1ccccc1 | – | -1.95% (inactive) |
| O/N=C/c1ccccc1OCc1ccc(Cl)cc1 | – | -27.3% (inactive) |
| CCCCc1ccc(-n2c(Cc3cccs3)n[nH]c2=S)cc1 | – | -28% (inactive) |
| Cc1cc(NS(=O)(=O)c2ccc(C3CCCCC3)cc2)no1 | – | 27.3% (inactive) |
